# Results taken from PMC9921896 (Molecules, 2023).
# Assays:
# CYP2C19 = target: T1, CYP2C19 (Homo sapiens, UniProt P33261); experiment: Single concentration Kobs assay (time-dependent inhibition) in HLM; type: biochemical; conditions: for Kobs 2C19: HLM, 0.02 min^−1 indicates TD inhibition potential; for Kobs 2C19 / inhibition at 30 min: single concentration; for Single concentration Kobs assay (risk bin) 2C19: TD inhibition class from Kobs vs 0.02 min^−1 (Table 5 traffic lights); for inhibition at 30 min: human, human liver microsomes, significant if >50%, read-out: 2C19 R_Inh% (reversible inhibition)
# T1 construct: Using HLM as the enzyme source; from tissue; host or cells: human liver microsomes
# T1 sequence (P33261 whole entry): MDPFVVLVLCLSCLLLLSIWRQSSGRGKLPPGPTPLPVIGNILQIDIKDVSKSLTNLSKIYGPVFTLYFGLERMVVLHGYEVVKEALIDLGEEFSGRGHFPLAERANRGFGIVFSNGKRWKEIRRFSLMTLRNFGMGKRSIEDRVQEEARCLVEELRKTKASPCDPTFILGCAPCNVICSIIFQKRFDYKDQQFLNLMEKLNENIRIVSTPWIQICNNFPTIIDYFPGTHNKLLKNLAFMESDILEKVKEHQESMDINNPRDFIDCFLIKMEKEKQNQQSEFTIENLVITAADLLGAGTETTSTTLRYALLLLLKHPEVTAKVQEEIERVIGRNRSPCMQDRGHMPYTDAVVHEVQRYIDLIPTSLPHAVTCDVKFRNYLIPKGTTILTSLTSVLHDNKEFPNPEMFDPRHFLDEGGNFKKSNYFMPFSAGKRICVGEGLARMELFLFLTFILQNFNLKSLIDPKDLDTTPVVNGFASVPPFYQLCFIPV
# Text: CYP inhibition evaluation is typically performed by either IC50 at single-point or IC50 Shift or abbreviated assay such as the first-order inactivity rate constant (K obs ) at single concentration.
# This method yielded good correlations between the percent inhibition at 10 or 25 μ M and kinact/KI. Evaluation of TD inhibition at single concentration has been implemented in several drug discovery programs. […] Therefore, in this study, a single K obs approach has been utilized to understand the TD inhibition potential of TbB ligands. Ideally, the inhibition of CYPs can be reversible or irreversible. The data obtained from single-concentration K obs studies were analyzed to understand the same. From the data presented in Table 4, the TbB ligands have values less than 50% for reversible inhibition (R_Inh). As the qualified % reversible inhibition is considered significant if >50%, no significant reversible inhibition is observed for TbB ligands. Knowledge about enzyme inactivation half-life (E½) is also equally important as it would provide insight into the TD inhibition of a compound. E½ can be used to bin the compounds as positive or negative TD inhibitors if the values are <28 or >28, respectively. The TbB ligand 223-2 is observed to be a weak positive TD inhibitor of 1A2 and is negative TD inhibitor to the other six CYP isoforms.
# The time-dependent inhibition (TDI) potential of test compounds against CYP1A2, 2B6, 2C8, 2C9, 2C19, 2D6, 3A4/5 isoforms were determined using Human liver microsomes. Assay is performed in 96-deep well plate format (n = 1). Positive controls and DMSO as negative control in each assay. To obtain 100 μ M working stock solution, 1 μ L of blank DMSO/test/reference compounds to 100 μ L 1× DPBS buffer was added and labeled as dilution plate. To the primary incubation plate, 45 μ L of primary mix was dispensed to the desired wells containing 25 μ L HLM, 10 μ L MgCl2, and 10 μ L of NADPH working solutions. To the secondary incubation plate, 95 μ L of secondary mix was dispensed to the desired wells containing 20 μ L MgCl2, 20 μ L NADPH, 10 μ L respective substrates for CYP isoform working solutions and 45 μ L 1× DPBS buffer. […] Pre-incubated the dilution plate along with primary incubation plate at 37 °C for 15 min at 450 rpm. The reaction was carried out in triplicate. After the incubation, the reaction was quenched by adding 150 μ L ice cold stop solution to all the wells followed by centrifuging the samples at 4000 rpm, 4 °C for 15 min. The supernatant samples were then transferred into vials for LC-MS/MS analysis. […]
# [1] = Substrate depletion assay in human liver microsomes (HLM); type: in vitro ADME; conditions: pooled human liver microsomes, pH 7.4, test conc. 1.0E-07 M (Table S4)
# Procedure: Microsomal stability was determined for the TbB ligands by monitoring the presence of compound after incubation in CPHH and HLM, as shown in Figure 7 and Figure S18 of the Supporting Information. […] Such an observation with NCEs is common because, with HLM, NADPH is used as a cofactor, thereby focusing mainly on phase 1 oxidation pathways such as P450 metabolism. Although additional enzymes, such as UDP-glucuronosyltransferase (UGTs), are present in HLM, the lack of the associated necessary cofactors prevents them from being functionally active (e.g., uridine diphosphate glucuronic acid (UDPGA)). In contrast, all the three TbB ligands metabolized in cryopreserved hepatocytes (Figure 7). […] The reason could be that hepatocytes have all the necessary enzymes and cofactors for the metabolic processes. Since they contain the complete set of oxidative/reductive, hydrolytic, and conjugative drug metabolizing enzymes found in the liver, they are regarded as the gold standard. Therefore, they are preferred in vitro options for expressing metabolic stability as substrate depletion, total metabolic clearance, and T 1/2 [29].
# From the plot shown in Figure S18 of the Supporting Information, it can be inferred that the TbB ligands undergo slow biotransformation in HLM. Such high metabolic stability may result in drug interactions leading to toxicity of the parent compound. On the contrary, TbB ligands are undergoing rapid biotransformation in CPHH (Figure 7), and this may lead to generation of metabolites that are either toxic, active, or nonactive. Metabolic stability is typically expressed by in vitro half-life T 1/2 and intrinsic clearance (CLint) terms. Intrinsic clearance (CLint) is measured using the substrate depletion method. It describes the maximum liver (microsomal proteins or hepatocytes) activity towards a compound not affected by other physiological factors such as hepatic blood flow and drug binding within the blood matrix. T 1/2 is used to express the time for the 50% disappearance of the parent compound. A possible explanation for the difference in metabolic stability might be that the TbB ligands bind to microsomes during incubation. This can result in decreased free TbB ligand levels available to interact with metabolizing enzymes, reducing apparent intrinsic clearance values.
# By preincubating a test substance for 5 minutes in phosphate buffer (pH 7.4) at 37 °C in shaking water bath, the stability of the test substance was examined in pooled HLM. After NADPH-generating systems addition, the reaction gets initiated and post incubation for 0, 15, 30, 45, and 60 min, the reaction is terminated with addition of acetonitrile/methanol to the incubation mixture. Supernatant obtained after mixing and centrifuging the sample is analyzed by HPLC-MS/MS. Microsomal protein for final use is at 0.1 mg/mL concentration. Four compounds, namely, propranolol and imipramine, known to be relatively stable, and verapamil and terfenadine, known as readily metabolizing in HLM, were included in each assay. Post HPLC-MS/MS of the samples, data are analyzed by considering test compounds peak area at each time point to time zero. Assuming the reaction to follow first-order kinetics, the slope of the initial linear range of the logarithmic curve of remaining compound (%) vs. time is considered to calculate the half-life. Additionally, the half-life is utilized to calculate the intrinsic clearance (CLint) as shown in the following equation. CLint(μL/min/mgprotein)=0.693/T1/2×proteinconc.
Structure (SMILES),Kobs 2C19 (CYP2C19),Kobs 2C19 (CYP2C19; listed as 223-03),Single concentration Kobs assay (risk bin) 2C19 (CYP2C19),inhibition at 30 min (CYP2C19),half-life at 100 nM [1],microsomal CLint at 100 nM [1],Kobs 2C19 (CYP2C19; listed as 223-02)
Cc1cc(-c2nnn(-c3cc(C)c(O)c(C)c3)n2)cc(C)c1O [223-3],0.0306 min⁻¹,0.03055 min⁻¹,positive inhibitor,< 50%,1.25 h,< 116 µL/min/mg,
COc1cc(-c2nnn(-c3cc(OC)c(O)c(OC)c3)n2)cc(OC)c1O [223-2],0.0206 min⁻¹,,weak positive inhibitor,< 50%,13.5 h,< 116 µL/min/mg,0.02058 min⁻¹
Oc1ccc(-c2nnn(-c3ccc(O)cc3)n2)cc1 [223-10],0.00365 min⁻¹,,negative inhibitor,< 50%,3 h,< 116 µL/min/mg,
